Holding throughout (type): biochemical
In assay [1] the target is T1, Syk (Homo sapiens, UniProt P43405).
T1 construct: purchased Carna Biosciences 08-176
The assay is described as follows: Syk HTRF Assay. The following applies: HTRF screening assay. The method, then:
5 μl/well DMSO is added to Column 2 Wells A-O and 29.5 μl to well P2 of Greiner 384-well polypropylene plate. 20 μl/well DMSO is added to Columns 1 and 3-12.
25 mM compound solutions are prepared by the addition of 25 μl of 30 mM compound to Column 2 and 0.5 μl 30 mM reference control to well P2.
Serial dilution is then performed by the following steps: (i) compounds in Column 2 are mixed by pipetting 20 μl up and down 6×; (ii) 10 μl/well compounds in DMSO are transferred from one column to the next column for Columns 2-11; (iii) wells are mixed by pipetting 20 μl up and down 6×; (iv) tips washed 3×25 μl DMSO, 2×25 μl next DMSO.
The following buffers are prepared:
Dilution Buffer: 50 mM HEPES pH 7.6; 1 mM DTT; 10 mM MgCl2; 0.01% Triton X100; 0.01% BSA; 0.1 mM EDTA.
Enzyme Mix in Dilution Buffer: 8.621 ng/ml Syk (Carna Biosciences 08-176).
Start Mix in Dilution Buffer: 87.5 μM ATP; 80 nM Substrate Peptide (American Peptide Company 332722).
14.5 μl/well Enzyme Mix or Dilution Buffer (Background Controls) is added to Costar 384-well black plates.
Compound addition and mixture is performed by the following steps: (i) 0.5 μl/well DMSO/compounds in DMSO transferred from Greiner 384-well polypropylene plate to left half of assay plate containing 14.5 μl/well Enzyme Mix and Dilution Buffer; (ii) Mix by pipetting 10 μl up and down 4×; (iii) tips are washed 4×10 μl in DMSO, 2×20 μl in other DMSO; (iv) steps i-iii are repeated with transfer to right half of assay plate; (v) steps i-iv are repeated with each compound/assay plate until all plates are completed.
10 μl/well Start Mix is added and incubated at room temperature on shaker for 2 minutes (1 hour total reaction time).
Stop Solution in Dilution Buffer: 120 mM EDTA
Antibody Mix in Dilution Buffer: 4.86 μg/ml DyLight 647 Streptavidin (Pierce 21824); 1 μg/ml Lance Eu-Anti-Phosphotyrosine (PerkinElmer AD0069).
5 μl/well[…] is added and incubated at room temperature on shaker for 2 minutes.
[…] Antibody Mix is added and Incubated at room temperature on shaker for 2 minutes (4 hours to overnight total time).
Plates are read at 665 nm and 620 nm emission on Analyst GT protocol HTRF_SP_A or EnVision protocol Steve's TR-FRET.
Background: TR-FRET usually uses a lanthanide donor and a delayed reading to cut background.

Assay [2] addresses T2, PKCθ (Homo sapiens, UniProt Q04759).
T2 construct: purchased Invitrogen
The assay is described as follows: PKCθ IMAP Assay. The conditions noted are these: IMAP fluorescence polarization screening assay, 35 μM ATP. The procedure, abridged: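 IMAP fluorescence polarization with 0.5 nM PKCθ, 100 nM FAM-AKRRRLSSLRA, 35 μM ATP, 2.5% DMSO, pH 7.6 HEPES with phosphatidyl serine/diacylglycerol. Compound pre-incubated with enzyme 45 min; reaction 60 min, then binding beads ≥30 min before FP read.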
A general note: In fluorescence polarisation assays a small probe gives low polarisation when free and higher when bound to something large.

Assay [3] concerns the target T3, mTOR (Homo sapiens, UniProt P42345).
T3 construct: Dilute TOR fraction 1:14 in “Simple TOR Buffer”
The assay is described as follows: mTOR HTR-FRET Assay. The conditions noted are these: HTR-FRET screening assay, GST-p70S6 kinase fragment substrate. The method, then: The following is an example of an assay that can be used to determine the mTOR inhibitory activity of a test compound. Reagents are prepared as follows:
“Simple TOR buffer” (used to dilute high glycerol TOR fraction): 10 mM Tris pH 7.4, 100 mM NaCl, 0.1% Tween-20, 1 mM DTT (from 1M stock frozen at −20° C. just prior to use). For convenience a large quantity of “Simple TOR buffer” w/o DTT can be stored at 4° C. It can be brought to room temperature and DTT added just prior to dilution of TOR fraction.
5×KB/5×Mn/5×ATP solution (used to dilute substrate GST-p70S6kin 81 a.a. just prior to use) (40 ml screen quantity shown):
Enzyme solution: Dilute TOR fraction 1:14 in “Simple TOR Buffer”. For current lot that is 640 μg/ml TOR fraction diluted 14× to yield 45.7 μg/ml TOR in buffer (i.e. 7.85 ml TOR pooled fraction+102.1 ml Simple TOR buffer=110 ml 14× diluted TOR fraction). Each Enzyme Lot must be QC'd prior to assay.
Substrate solution: This may be prepared just prior to assay if preferred. Dilute 5.3 mg/ml GST-p70S6kinase fragment stock to 3.5 μg/ml (97 nM) working stock in 5×KB/5×Mn/5×ATP solution (i.e. 26.41 μL (5.3 mg/ml) GST-p70S6+40 ml 5×KB/5×Mn/5×ATP=40 ml 3.5 μg/ml (97 nM)).
Assay Buffer (for dilution of Antibodies used in Antibody Detection Reagent):
Antibody Detection Reagent (this reagent should be made just prior to addition to Assay Plates):
Using PlateTrak program (Screen) or Matrix Pipettor (SAR), 19.5 μL of diluted TOR fraction is added to assay plate in all test, reference or positive control wells. 19.5 μL of “Simple TOR buffer” is added to all negative control wells. If treating multiple plates with the same compounds, can increase volume of enzyme to multiples of 19.5 μL in a tall 384 well polypropylene plate.
Using EP3, 0.5 μl of test, reference or control DMSO is added to each well with mixing. Plates are incubated for 30 minutes at room temperature.
Using PlateTrak program (Screen) or Matrix Pipettor (SAR) 5 μL of 5×KB/5×Mn/5×ATP/5× substrate solution is added to each well of the assay plate to start the reaction. The solutions are mixed well and incubated for 2 hours at room temperature.
Using PlateTrak program (Screen) or Matrix Pipettor (SAR) 5 μL of 60 mM EDTA is added to stop the reaction. The solutions are mixed well and allowed to sit for 15-20 minutes before the next step.
Using PlateTrak program (Screen) or Matrix Pipettor (SAR) 10 μl of Antibody Detection Reagent is added. The solutions are mixes well and incubated for 5 hours to O/N to allow antibodies to form complexes with phosphorylated substrate.
Plates are read on AnalystHT using protocol Multi-Method protocol.

T2 sequence (Q04759 whole entry): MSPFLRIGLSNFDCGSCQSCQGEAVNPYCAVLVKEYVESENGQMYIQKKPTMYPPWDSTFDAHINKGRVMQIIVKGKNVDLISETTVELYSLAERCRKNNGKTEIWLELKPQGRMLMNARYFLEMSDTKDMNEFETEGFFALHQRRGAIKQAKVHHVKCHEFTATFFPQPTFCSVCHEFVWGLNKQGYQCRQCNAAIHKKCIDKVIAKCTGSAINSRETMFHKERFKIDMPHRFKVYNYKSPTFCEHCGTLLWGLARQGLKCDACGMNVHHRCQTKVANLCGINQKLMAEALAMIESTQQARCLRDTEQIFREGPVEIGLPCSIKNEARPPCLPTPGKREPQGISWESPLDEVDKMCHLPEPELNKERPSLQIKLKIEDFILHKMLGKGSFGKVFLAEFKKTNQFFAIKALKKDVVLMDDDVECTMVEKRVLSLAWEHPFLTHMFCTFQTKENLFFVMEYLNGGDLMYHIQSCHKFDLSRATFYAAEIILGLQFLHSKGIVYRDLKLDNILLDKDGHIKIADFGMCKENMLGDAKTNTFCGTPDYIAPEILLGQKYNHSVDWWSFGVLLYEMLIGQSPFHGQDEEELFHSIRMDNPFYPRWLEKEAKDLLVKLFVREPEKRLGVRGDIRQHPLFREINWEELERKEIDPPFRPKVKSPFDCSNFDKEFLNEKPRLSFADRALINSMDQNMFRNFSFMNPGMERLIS

As for `CC(C)[C@@H](CO)n1c(=O)[nH]c2ncc(-c3ccccc3)nc21` [Compound 1, (S)-1-(1-hydroxy-3-methylbutan-2-yl)-6-phenyl-1H-imidazo[4,5-b]pyrazin-2(3H)-one], the IC50 in assay [1] and in assay [2] was over 30 µM in each case.

Consider `COc1ccc(C(C)C)cc1-c1cnc2[nH]c(=O)n([C@H](CO)C(C)C)c2n1` [Compound 8, (S)-1-(1-hydroxy-3-methylbutan-2-yl)-6-(5-isopropyl-2-methoxyphenyl)-1H-imidazo[4,5-b]pyrazin-2(3H)-one], for which the IC50 in assay [1] and in assay [2] was 0.1 to 5 µM in each case.

On to `CC(C)[C@@H](CO)n1c(=O)[nH]c2ncc(-c3cccc4ncccc34)nc21` [Compound 11, (S)-1-(1-hydroxy-3-methylbutan-2-yl)-6-(quinolin-5-yl)-1H-imidazo[4,5-b]pyrazin-2(3H)-one], for which the IC50 (in general, the concentration at which inhibition is half-maximal) in assay [1] was over 30 µM; in assay [2], 20.1 to 30 µM; in assay [3], over 30 µM.

For `COc1ccc(C(C)C)cc1-c1cnc2[nH]c(=O)n([C@@H](CO)C(C)C)c2n1` [Compound 13, (R)-1-(1-hydroxy-3-methylbutan-2-yl)-6-(5-isopropyl-2-methoxyphenyl)-1H-imidazo[4,5-b]pyrazin-2(3H)-one], the concentration for half-maximal inhibition (IC50) lay within 5.1 to 10 µM in assay [1] and 10.1 to 20 µM in assay [2].

With `COc1ccc(C(C)C)cc1-c1cnc2[nH]c(=O)n([C@H](C)C(C)C)c2n1` [Compound 28, (R)-6-(5-isopropyl-2-methoxyphenyl)-1-(3-methylbutan-2-yl)-1H-imidazo[4,5-b]pyrazin-2(3H)-one], the IC50 in assay [1] and in assay [2] was 0.1 to 5 µM each time.

`COc1ccc(C(C)C)cc1-c1cnc2[nH]c(=O)n([C@@H](C)C(C)C)c2n1` [Compound 30, (S)-6-(5-isopropyl-2-methoxyphenyl)-1-(3-methylbutan-2-yl)-1H-imidazo[4,5-b]pyrazin-2(3H)-one]: the results for the IC50 in assay [1] and in assay [2] were 0.1 to 5 µM and 20.1 to 30 µM, respectively.

In the case of `CC(c1ccccc1)n1c(=O)[nH]c2ncc(-c3ccc4ncccc4c3)nc21` (stereo not shown) [Compound 73, 1-(1-phenylethyl)-6-(quinolin-6-yl)-1H-imidazo[4,5-b]pyrazin-2(3H)-one], the IC50 in assay [2] was over 30 µM; in assay [3] it was 5.1 to 10 µM.

For `CC(c1ccccc1)n1c(=O)[nH]c2ncc(-c3cccc(NS(C)(=O)=O)c3)nc21` (stereo not shown) [Compound 84, N-(3-(2-oxo-3-(1-phenylethyl)-2,3-dihydro-1H-imidazo[4,5-b]pyrazin-5-yl)phenyl)methanesulfonamide], the values for the IC50 in assay [2] and in assay [3] were 10.1 to 20 µM and 0.1 to 5 µM, respectively.

Take `CC(c1ccccc1)n1c(=O)[nH]c2ncc(-c3ccc(S(C)(=O)=O)cc3)nc21` (stereo not shown) [Compound 85, 6-(4-(methylsulfonyl)phenyl)-1-(1-phenylethyl)-1H-imidazo[4,5-b]pyrazin-2(3H)-one]: the IC50 in assay [2] is over 30 µM; in assay [3] it was 5.1 to 10 µM.

(Values after US7981893B2, “Heteroaryl compounds, compositions thereof, and methods of treatment therewith” (Signal Pharmaceuticals, LLC, priority 2006, dated 2011).)
